{"source": "ChEMBL document CHEMBL3734697", "about": "“Fragment-Based Drug Design of Novel Pyranopyridones as Cell Active and Orally Bioavailable Tankyrase Inhibitors” (ACS Med Chem Lett, 2015)", "key": {"[1]": {"assay": "Kinetic solubility of compound by LYSA", "type": "physicochemical", "conditions": "read-out: Kinetic_solubility"}, "[2]": {"assay": "Clearance in Wistar/Han rat at 0.5 mg/kg, iv administered as single bolus dose", "type": "ADME, organism-based", "conditions": "in vivo"}, "[3]": {"assay": "Cmax in C57BL/6J mouse at 5 mg/kg, po by LC/MS/MS analysis", "type": "ADME, organism-based", "set-up": "dose 5 mg/kg, route oral", "conditions": "in vivo"}, "[4]": {"assay": "Clearance in C57BL/6J mouse at 1 mg/kg, iv by LC/MS/MS analysis", "type": "ADME, organism-based", "conditions": "in vivo"}, "[5]": {"assay": "AUC (0 to last) in C57BL/6J mouse at 5 mg/kg, po by LC/MS/MS analysis", "type": "ADME, organism-based", "set-up": "dose 5 mg/kg, time 0 - last, route oral", "conditions": "in vivo"}, "[6]": {"assay": "Solubility of compound in fed-state simulated intestinal fluid", "type": "ADME"}, "[7]": {"assay": "Oral bioavailability in C57BL/6J mouse at 5 mg/kg by LC/MS/MS analysis", "type": "ADME, organism-based", "conditions": "in vivo"}, "[8]": {"assay": "Tmax in C57BL/6J mouse at 5 mg/kg, po by LC/MS/MS analysis", "type": "ADME, organism-based", "conditions": "in vivo"}, "[9]": {"assay": "Cmax in C57BL/6J mouse at 50 mg/kg, po by LC/MS/MS analysis", "type": "ADME, organism-based", "set-up": "dose 50 mg/kg, route oral", "conditions": "in vivo"}, "[10]": {"assay": "AUC (0 to last) in C57BL/6J mouse at 50 mg/kg, po by LC/MS/MS analysis", "type": "ADME, organism-based", "set-up": "dose 50 mg/kg, time 0 - last, route oral", "conditions": "in vivo"}, "[11]": {"assay": "Oral bioavailability in C57BL/6J mouse at 50 mg/kg by LC/MS/MS analysis", "type": "ADME, organism-based", "conditions": "in vivo"}, "[12]": {"assay": "Solubility of compound in fasted-state simulated intestinal fluid", "type": "ADME"}, "[13]": {"assay": "Tmax in C57BL/6J mouse at 50 mg/kg, po by LC/MS/MS analysis", "type": "ADME, organism-based", "conditions": "in vivo"}, "[14]": {"assay": "AUC (0 to last) in C57BL/6J mouse at 1 mg/kg, iv by LC/MS/MS analysis", "type": "ADME, organism-based", "set-up": "dose 1 mg/kg, route intravenous, time 0 - last", "conditions": "in vivo"}, "[15]": {"assay": "Volume of distribution at steady state in C57BL/6J mouse at 1 mg/kg, iv by LC/MS/MS analysis", "type": "ADME, organism-based", "conditions": "in vivo, read-out: Vdss"}, "[16]": {"assay": "Clearance in Wistar/Han rat at 1 mg/kg, iv administered as single bolus dose", "type": "ADME, organism-based", "conditions": "in vivo"}}}
{"smiles": "CC(C)(CO)C1Cc2[nH]c(=O)c3ccccc3c2CO1", "note": "(racemic)", "values": [{"measurement": "solubility kinetic", "setting": "[1]", "value": 66, "unit": "µg/mL"}]}
{"smiles": "Cc1cccc2c(=O)[nH]c3c(c12)COC(C(C)C)C3", "note": "(racemic)", "values": [{"measurement": "solubility kinetic", "setting": "[1]", "value": "< 1", "unit": "µg/mL"}, {"measurement": "clearance", "setting": "[2]", "value": 20, "unit": "mL/min/kg"}]}
{"smiles": "CC(C)(C)C1Cc2[nH]c(=O)c3ccccc3c2CO1", "note": "(racemic)", "values": [{"measurement": "solubility kinetic", "setting": "[1]", "value": "< 1", "unit": "µg/mL"}, {"measurement": "clearance", "setting": "[2]", "value": 2, "unit": "mL/min/kg"}]}
{"smiles": "O=C(C1COC1)N1CCC(C2Cc3[nH]c(=O)c4ccccc4c3CO2)CC1", "note": "(racemic)", "values": [{"measurement": "solubility kinetic", "setting": "[1]", "value": 13, "unit": "µg/mL"}]}
{"smiles": "CC(C)C1Cc2[nH]c(=O)c3cccnc3c2CO1", "note": "(racemic)", "values": [{"measurement": "solubility kinetic", "setting": "[1]", "value": 13, "unit": "µg/mL"}, {"measurement": "clearance", "setting": "[2]", "value": 10, "unit": "mL/min/kg"}]}
{"smiles": "Cc1cccc2c(=O)[nH]c3c(c12)COC(C(C)(C)CO)C3", "note": "(racemic)", "values": [{"measurement": "solubility kinetic", "setting": "[1]", "value": 4, "unit": "µg/mL"}, {"measurement": "Cmax", "setting": "[3]", "value": 1600, "unit": "ng/mL"}, {"measurement": "clearance", "setting": "[4]", "value": 28, "unit": "mL/min/kg"}, {"measurement": "AUC(0-t)", "setting": "[5]", "value": 1400, "unit": "ng·h/mL"}, {"measurement": "solubility", "setting": "[6]", "value": 143, "unit": "µg/mL"}, {"measurement": "bioavailability", "setting": "[7]", "value": 49, "unit": "%"}, {"measurement": "Tmax", "setting": "[8]", "value": 15, "unit": "min"}, {"measurement": "Cmax", "setting": "[9]", "value": 14000, "unit": "ng/mL"}, {"measurement": "AUC(0-t)", "setting": "[10]", "value": 27000, "unit": "ng·h/mL"}, {"measurement": "bioavailability", "setting": "[11]", "value": 92, "unit": "%"}, {"measurement": "solubility", "setting": "[12]", "value": 50, "unit": "µg/mL"}, {"measurement": "Tmax", "setting": "[13]", "value": 15, "unit": "min"}, {"measurement": "AUC(0-t)", "setting": "[14]", "value": 600, "unit": "ng·h/mL"}, {"measurement": "Vd", "setting": "[15]", "value": 1.5, "unit": "L/kg"}, {"measurement": "clearance", "setting": "[16]", "value": 25, "unit": "mL/min/kg"}]}
{"smiles": "CS(=O)(=O)N1CCC(C2Cc3[nH]c(=O)c4ccccc4c3CO2)C1", "note": "(racemic)", "values": [{"measurement": "solubility kinetic", "setting": "[1]", "value": 28, "unit": "µg/mL"}, {"measurement": "clearance", "setting": "[2]", "value": 47, "unit": "mL/min/kg"}]}
{"smiles": "CC(C)C1Cc2[nH]c(=O)c3ccccc3c2CO1", "note": "(racemic)", "values": [{"measurement": "solubility kinetic", "setting": "[1]", "value": 5, "unit": "µg/mL"}, {"measurement": "clearance", "setting": "[2]", "value": 37, "unit": "mL/min/kg"}]}
